Reference: patent US12162858B2, “Quinoline derivatives as inhibitors of AXL/MER RTK and CSF1R” (QURIENT CO., LTD., priority 2018, dated 2024)

Legend:
Format in all cases: cell-based
CSF1R (Ba/F3 cells) = CSF1R (Ba/F3 cells) (Homo sapiens, UniProt P07333); experiment: BaF3 viability assay, CSF1R-dependent cells; details: read-out: Cellular CSF1R activity by Ba/F3 assay (IC50)
Description: (§1) In this system, IL-3-dependent Ba/F3 cells are modified to express an activated recombinant kinase (in the present case Axl, Mer and CSF1R). Following removal of IL-3, the modified cells are dependent on the activity of the recombinant kinase for survival and proliferation. Inhibition of such kinase(s) through test compounds reduces survival and proliferation of the cells.
(§2) Cell lines were maintained in growth media (GM) consisting of RPMI 1640 supplemented with 10% FBS. Cells in logarithmic-phase growth were harvested and 5,000 cells were distributed into each well of a 384-well plate in 50 μl GM. Parental cells (or experimental assays where specified) were further supplemented with 2 ng/ml IL-3 to support cell growth and survival. Fifty nanoliters of the indicated reference standard or experimental compound were added to appropriate wells (in duplicate) and the cells were cultured for 48 h at 37° C./5% CO2. Viability was determined by adding 10 μl Cell Titer Glo and measuring luminescence, which is reported as relative light units (RLU) measured in counts per second. The following calculations and formulas are used for data analysis using GraphPad Prism software: The curve fitting was made using the Dose response curves-Inhibition.

Mer (Ba/F3 cells) = target: T1, Mer (Ba/F3 cells) (Homo sapiens, UniProt Q12866); experiment: BaF3 viability assay, Mer-dependent cells; details: read-out: Cellular Mer activity by Ba/F3 assay (IC50)
T1 sequence (Q12866 1-999): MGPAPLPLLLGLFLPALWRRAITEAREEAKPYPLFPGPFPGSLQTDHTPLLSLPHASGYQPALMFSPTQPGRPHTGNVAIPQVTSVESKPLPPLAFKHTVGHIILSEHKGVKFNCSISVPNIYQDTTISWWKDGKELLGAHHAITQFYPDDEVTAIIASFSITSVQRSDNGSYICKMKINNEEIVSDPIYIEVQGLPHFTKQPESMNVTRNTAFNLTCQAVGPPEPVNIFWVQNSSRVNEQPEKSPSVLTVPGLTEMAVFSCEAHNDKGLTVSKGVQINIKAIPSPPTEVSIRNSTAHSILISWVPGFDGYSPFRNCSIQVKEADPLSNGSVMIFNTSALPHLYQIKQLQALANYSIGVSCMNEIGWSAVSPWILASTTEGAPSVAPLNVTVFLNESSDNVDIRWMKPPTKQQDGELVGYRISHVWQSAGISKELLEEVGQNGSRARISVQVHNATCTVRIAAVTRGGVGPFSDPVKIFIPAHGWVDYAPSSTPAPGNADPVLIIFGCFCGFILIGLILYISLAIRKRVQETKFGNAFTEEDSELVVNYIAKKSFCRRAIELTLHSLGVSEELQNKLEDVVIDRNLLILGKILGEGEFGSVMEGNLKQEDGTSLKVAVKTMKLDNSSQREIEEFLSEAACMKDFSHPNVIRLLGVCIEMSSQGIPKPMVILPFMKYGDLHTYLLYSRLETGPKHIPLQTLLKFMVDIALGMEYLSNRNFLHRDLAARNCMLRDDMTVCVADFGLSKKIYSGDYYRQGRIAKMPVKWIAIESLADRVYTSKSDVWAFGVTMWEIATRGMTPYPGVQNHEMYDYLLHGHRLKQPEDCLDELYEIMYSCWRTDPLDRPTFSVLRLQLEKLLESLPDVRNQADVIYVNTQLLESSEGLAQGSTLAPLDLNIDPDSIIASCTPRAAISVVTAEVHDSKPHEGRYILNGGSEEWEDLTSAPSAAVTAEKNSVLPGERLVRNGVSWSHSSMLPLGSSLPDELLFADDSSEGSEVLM
Description: as §1, §2

Axl (Ba/F3 cells) = target: T2, Axl (Ba/F3 cells) (Homo sapiens, UniProt P30530); experiment: BaF3 viability assay, Axl-dependent cells; details: read-out: Cellular Axl activity by Ba/F3 assay (IC50)
T2 sequence (P30530 1-894): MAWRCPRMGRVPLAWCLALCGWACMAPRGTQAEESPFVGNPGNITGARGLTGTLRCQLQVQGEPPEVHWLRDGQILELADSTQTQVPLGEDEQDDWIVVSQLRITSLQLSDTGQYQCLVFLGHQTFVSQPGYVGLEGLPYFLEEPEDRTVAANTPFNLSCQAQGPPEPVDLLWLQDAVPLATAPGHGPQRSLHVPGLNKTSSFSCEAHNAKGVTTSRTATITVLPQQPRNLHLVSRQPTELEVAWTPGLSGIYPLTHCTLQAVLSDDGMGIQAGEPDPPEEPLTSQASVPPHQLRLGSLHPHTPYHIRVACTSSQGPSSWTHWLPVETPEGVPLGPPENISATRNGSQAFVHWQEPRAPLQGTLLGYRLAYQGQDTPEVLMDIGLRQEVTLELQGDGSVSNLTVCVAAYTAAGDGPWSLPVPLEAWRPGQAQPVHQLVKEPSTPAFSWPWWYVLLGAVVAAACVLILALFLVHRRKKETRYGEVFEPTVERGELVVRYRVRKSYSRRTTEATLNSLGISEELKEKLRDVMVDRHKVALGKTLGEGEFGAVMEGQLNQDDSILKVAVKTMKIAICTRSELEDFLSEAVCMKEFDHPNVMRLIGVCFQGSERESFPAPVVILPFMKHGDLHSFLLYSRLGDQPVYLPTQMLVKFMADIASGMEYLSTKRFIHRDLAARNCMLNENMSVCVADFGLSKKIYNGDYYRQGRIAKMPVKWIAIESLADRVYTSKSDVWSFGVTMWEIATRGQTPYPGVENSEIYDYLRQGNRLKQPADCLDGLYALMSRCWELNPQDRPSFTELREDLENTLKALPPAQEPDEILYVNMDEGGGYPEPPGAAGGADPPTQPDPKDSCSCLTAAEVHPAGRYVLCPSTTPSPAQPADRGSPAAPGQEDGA
Description: as §1, §2

Measured: GI50

CSF1R (Ba/F3 cells), sequence (P07333 whole entry, change not shown): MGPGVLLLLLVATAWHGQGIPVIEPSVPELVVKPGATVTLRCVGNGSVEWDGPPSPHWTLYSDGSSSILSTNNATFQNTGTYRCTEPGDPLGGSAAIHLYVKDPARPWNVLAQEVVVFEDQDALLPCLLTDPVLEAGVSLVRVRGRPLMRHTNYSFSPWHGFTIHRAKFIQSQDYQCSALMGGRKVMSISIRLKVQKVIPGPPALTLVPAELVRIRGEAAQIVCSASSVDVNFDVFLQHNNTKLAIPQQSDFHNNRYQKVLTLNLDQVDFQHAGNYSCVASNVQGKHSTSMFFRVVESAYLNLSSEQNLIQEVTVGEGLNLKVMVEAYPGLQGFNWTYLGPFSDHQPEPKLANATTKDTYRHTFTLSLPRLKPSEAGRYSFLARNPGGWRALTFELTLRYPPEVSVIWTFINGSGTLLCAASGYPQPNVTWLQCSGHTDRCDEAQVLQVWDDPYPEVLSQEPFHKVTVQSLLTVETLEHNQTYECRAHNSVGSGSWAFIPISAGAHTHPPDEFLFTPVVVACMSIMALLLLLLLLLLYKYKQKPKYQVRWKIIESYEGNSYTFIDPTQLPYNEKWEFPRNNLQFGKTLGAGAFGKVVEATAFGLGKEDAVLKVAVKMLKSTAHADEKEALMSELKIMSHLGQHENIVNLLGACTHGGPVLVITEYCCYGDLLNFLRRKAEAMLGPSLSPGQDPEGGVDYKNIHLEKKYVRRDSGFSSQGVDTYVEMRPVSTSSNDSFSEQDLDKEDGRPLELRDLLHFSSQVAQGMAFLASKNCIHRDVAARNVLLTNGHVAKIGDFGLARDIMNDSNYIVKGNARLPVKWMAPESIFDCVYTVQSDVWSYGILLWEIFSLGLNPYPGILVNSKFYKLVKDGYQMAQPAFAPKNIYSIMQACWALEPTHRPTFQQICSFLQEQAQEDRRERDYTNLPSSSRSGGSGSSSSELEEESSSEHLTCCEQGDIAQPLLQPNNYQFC

COc1cc2nccc(Oc3ccc(NC(=O)c4nn(C5CC5)cc4OCC(F)(F)F)nc3)c2cc1OC [Compound 5]
< 1000 nM: CSF1R (Ba/F3 cells) | Mer (Ba/F3 cells) | Axl (Ba/F3 cells)
